Results from publication PMC7400207, “It Takes Two: Dimerization Is Essential for the Broad-Spectrum Predatory and Defensive Activities of the Venom Peptide Mp1a from the Jack Jumper Ant Myrmecia pilosula” (Biomedicines, 2020).
Marks after values point to notes of the source that are not given here. Where no end group is shown, it is not given here.

Assays:
Drosophila melanogaster [1] = conditions: same assay; cited from earlier work
[2] = test system: mouse dorsal root ganglion (DRG) cells; experiment: Calcium imaging of mammalian sensory neurons; format: cell-based; conditions: 1 µM peptide, Fluo-4 calcium imaging, neuronal and non-neuronal cells
Experimental: Calcium imaging of a heterogenous population of mouse dorsal root ganglion (DRG) sensory neurons was performed as previously described. In brief, dorsal root ganglion (DRG) cells isolated from 4–8-week-old male C57BL/6 mice under ethics approval TRI/IMB/093/17 (University of Queensland Animal Ethics Committee, approval date 31/03/2017) were dissociated and then plated in Dulbecco’s modified Eagle’s medium (Gibco, Grand Island, NY, USA) containing 10% fetal bovine serum (FBS; Assaymatrix, Melbourne, Australia) and penicillin/streptomycin (Gibco) on a 96-well poly-D-lysine–coated culture plate (Corning, Lowell, MA, USA), and maintained overnight. Cells were loaded with Fluo-4 AM calcium indicator as per the manufacturer’s instructions (Thermo Fisher Scientific, Grand Island, NY, USA). After loading for 1 h, the dye solution was replaced with assay solution (Hanks’ balanced salt solution and 20 mM HEPES). Fluorescence corresponding to intracellular calcium ([Ca^2+]i) of typically 100–150 DRG cells per experiment was monitored in parallel using a Nikon Ti-E deconvolution inverted microscope, equipped with a Lumencor Spectra LED light source. Images were acquired at a 20× objective at one frame/s (excitation 485 nm; emission 521 nm). For each experiment, baseline fluorescence was monitored for 30 s and then a wash of assay solution was applied.

Drosophila melanogaster [3] = experiment: Drosophila melanogaster microinjection assay; format: in vivo; conditions: intrathoracic injection, 50 nL, adult female flies, lethality at 24 h; three dose-response curves, ± SEM
Experimental: The insecticidal activity of the chemically synthesized 1a and analogues thereof were determined by injection into adult female D. melanogaster aged 3–5 days (mass 0.7–0.9 mg) as described previously. Analogues were dissolved in water and intrathoracically injected using pulled glass capillaries at a volume of 50 nL per fruit fly, and the results were compared against an equivalent injection volume of water alone. All injections were performed in the morning or early afternoon. At 24 h post-injection flies were monitored for lethality. Dose–response curves were constructed using 7–10 doses per analogue (each dose tested in eight flies) and three separate dose–response curves were constructed for each analogue. The lethality in the groups receiving the analogues were adjusted using the respective control group lethality using the Henderson-Tilton formula [20]. The median lethal dose (LD50) of each analogue was calculated based on the three dose–response curves using GraphPad Prism 8.0 [21]. One-way ANOVA followed by Dunnett’s multiple comparison test were used to compare LD50 values.

F11 cells = experiment: FLIPR calcium assay, activation of F11 cells; format: cell-based; conditions: F11 cells, FLIPR
Experimental: F11 cells were cultured as previously described. Cells were maintained on Ham’s F12 media supplemented with 10% fetal bovine serum (FBS), 100 µM hypoxanthine, 0.4 µM aminopterin, and 16 µM thymidine (Hybri-MaxTM, Sigma Aldrich, North Ryde, Australia). Then, 384-well imaging plates (Corning) were seeded 48 h prior to imaging resulting in 90–95% confluence at imaging. Cells were incubated for 30 min with the Calcium 4 assay component A according to the manufacturer’s instructions (Molecular Devices, Sunnyvale, CA, USA) in physiological salt solution (PSS; composition in mM: 140 NaCl, 11.5 D-glucose, 5.9 KCl, 1.4 MgCl2, 1.2 NaH2PO4, 5 NaHCO3, 1.8 CaCl2, 10 HEPES) at 37°C. Fluorescence was measured using a fluorescent imaging plate reader (FLIPR^TETRA) equipped with a CCD camera (Excitation: 470–490 nm, Emission: […]) (Molecular Devices, Sunnyvale, CA, USA). Signals were read every second for 10 s before, and 300 s after the addition of peptides in PSS supplemented with 0.1% bovine serum albumin. All data are the mean ± SEM of assays performed in triplicate. Maximum–minimum fluorescence in the 300 s period after peptide addition was recorded as the response. Concentration–response data were fitted with a four-parameter Hill equation (variable slope) using GraphPad Prism 8 to obtain effective concentration (EC50) values.

trypanosomes = conditions: cited from earlier work
Description: However, the anthelmintic activity of the dimers was only observed at concentrations 10-fold higher than required for neuronal cell activation, cytotoxicity and hemolysis.

β-diguetoxin-Dc1a
LD50 (insecticidal potency) (Drosophila melanogaster [1]): 59 pmol/g

CC[C@H](C)[C@H](N)C(=O)N[C@@H](CC(=O)O)C(=O)N[C@@H](Cc1c[nH]c2ccccc12)C(=O)N[C@@H](CCCCN)C(=O)N[C@@H](CCCCN)C(=O)N[C@H](C(=O)N[C@@H](CC(=O)O)C(=O)N[C@@H](Cc1c[nH]c2ccccc12)C(=O)N[C@@H](CCCCN)C(=O)N[C@@H](CCCCN)C(=O)N[C@H](C(=O)N[C@@H](CO)C(=O)N[C@@H](CCCCN)C(=O)N[C@@H](CCCCN)C(=O)N[C@H](C(=O)N[C@H]1CSSC[C@@H](C(=O)N[C@@H](CCCCN)C(=O)N[C@@H](Cc2ccccc2)C(=O)N[C@@H](CC(C)C)C(N)=O)NC(=O)[C@H](C)NC(=O)[C@H](CCCCN)NC(=O)[C@H](CC(C)C)NC(=O)[C@H](CCSC)NC(=O)[C@H](C(C)C)NC(=O)[C@H](CCCCN)NC(=O)[C@@H](NC(=O)[C@@H](NC(=O)[C@H](CCCCN)NC(=O)[C@H](CCCCN)NC(=O)[C@H](CO)NC(=O)[C@@H](NC(=O)[C@H](CCCCN)NC(=O)[C@H](CCCCN)NC(=O)[C@H](Cc2c[nH]c3ccccc23)NC(=O)[C@H](CC(=O)O)NC(=O)[C@@H](NC(=O)[C@H](CCCCN)NC(=O)[C@H](CCCCN)NC(=O)[C@H](Cc2c[nH]c3ccccc23)NC(=O)[C@H](CC(=O)O)NC(=O)[C@@H](N)[C@@H](C)CC)C(C)C)C(C)C)[C@@H](C)O)CSSC[C@@H](C(=O)N[C@@H](CCCCN)C(=O)N[C@@H](Cc2ccccc2)C(=O)N[C@@H](CC(C)C)C(N)=O)NC(=O)[C@H](C)NC(=O)[C@H](CCCCN)NC(=O)[C@H](CC(C)C)NC(=O)[C@H](CCSC)NC(=O)[C@H](C(C)C)NC(=O)[C@H](CCCCN)NC1=O)[C@@H](C)O)C(C)C)C(C)C [Analogue 5a]
Effect on [Ca2+]i of DRG cells [2]: activated all DRG cells and caused dye leakage | Insecticidal Activity (LD50) (Drosophila melanogaster [3]): 415.4 ± 29.6 ^a pmol/g | Concentration at which cytolysis (rapid increase in fluorescence followed by decrease to or below baseline) was observed (F11 cells): ≥ 10 µM

cupiennin-1a: broadly cytolytic peptide from the wandering spider Cupiennius salei (GFGALFKFLAKKVAKTVAKQAAKQGAKYVVNKQME; ends and bridges not checked; UniProt P83619 1-35, looked up)
Selectivity for trypanosomes over human red blood cells (trypanosomes): > 400 fold

ω-hexatoxin-Hv1a
LD50 (insecticidal potency) (Drosophila melanogaster [1]): 9 pmol/g
